biological target: T1, MNK2 (Homo sapiens, UniProt Q9HBH9); assay: Mnk2a in vitro kinase assay (indirect fluorescence polarization); assay type: biochemical; conditions: pre-activated GST-Mnk2a 2.5 nM, 20 μM ATP, 30 μM substrate peptide
T1 construct: the open reading frames of human Mnk1 and Mnk2a were amplified from cDNA; made in house; host or cells: E. coli BL21
Protocol: Inhibitory potency of compounds against Mnk1, Mnk2a and other kinases was assessed with assays based on a format known to those skilled in the art as the indirect (competitive) fluorescence polarization. The assay detection system comprises a small fluorophore-labeled phospho-peptide (termed ligand) bound to a phospho-specific antibody. The product generated by the kinase reaction competes with the ligand for antibody binding. Based on the larger molecular volume of the bound ligand, which results in a lower rotation rate in solution, its emitted light has a higher degree of polarization than the one from the free ligand.
Example 2a. Mnk1 and Mnk2a in vitro kinase assay
As a source of enzyme, human Mnk1 and human Mnk2a were expressed as GST fusion proteins in E. coli, purified to >80% homogeneity by glutathione affinity chromatography and activated in vitro with pre-activated ERK2. In brief, the open reading frames of human Mnk1 and Mnk2a were amplified from cDNA using the forward/reverse primer pairs
(utilized restriction sites underlined), respectively, and cloned into the BamHI and SalI sites of the vector pGEX-4T1 (Amersham, Sweden, cat. no. 27-4580-01). These constructs allow prokaryotic expression of Mnk1 or Mnk2a as fusion protein with a N-terminal glutathione S-transferase (GST) tag, referred to as GST-Mnk1 or GSTMnk2a. The following expression and purification procedure was identical for GSTMnk1 and GST-Mnk2a, referring in general to GST-Mnk, when not distinguishing between the two isoforms. Expression of GST-Mnk was in E. coli BL21 (Merck Biosciences, Germany, cat. no. 69449). Cells were grown in LB-Bouillon (Merck, Germany, cat. no. 1.10285) supplemented with 100 μg/ml ampicillin (Sigma, Germany, cat. no. A9518) at 37° C. When the culture had reached a density corresponding to an A600 of 0.8, an equal volume of ice cold LB/ampicillin was added, the culture transferred to 25° C. and induced for 4 h with 1 mM isopropyl thiogalactoside (IPTG, Roth, Germany, cat. no. 2316.4). Cells harvested by centrifugation were resuspended in 10 ml lysis buffer (50 mM tris(hydroxymethyl)aminomethane hydrochloride (Tris/HCl, Sigma, Germany, cat. no. T5941) pH 7.5, 300 mM sodium chloride (NaCl, Sigma, Germany, cat. no. S7653), 5% (w/v) glycerol (Sigma, Germany, cat. no. G5516), 3 mM DTT dithiotreitol (DTT, Sigma, Germany, cat. no. D9779)) per gram wet weight cell pellet. Lysates were prepared by disruption of cells with a sonifier and subsequent clearing by centrifugation at 38000 g for 45 min at 4° C.
The lysate was applied to a GSTPrep FF 16/10 column (Amersham, Sweden, cat. no. 17-5234-01) equilibrated with lysis buffer. Removal of unbound material was with 3 column volumes (CV) lysis buffer. Elution was with 2 CV of elution buffer (50 mM Tris/HCl pH 7.5, 300 mM NaCl, 5% (w/v) glycerol, 20 mM glutathione (Sigma, Germany, cat. no. G4251)). Peak fractions were pooled and the protein transferred into storage buffer (50 mM Tris/HCl pH 7.5, 200 mM NaCl, 0.1 mM ethylene glycolbis(2-aminoethylether)-N,N,N′,N′-tetraacetic acid (EGTA, Aldrich, Germany, cat. no. 23, 453-2), 1 mM DTT, 10% (w/v) glycerol, 0.5 M sucrose (Sigma, Germany, cat. no. S0389) by gel filtration on a PD10 desalting column (Amersham, Sweden, cat. no. 17-0851-01). Aliquots were shock frozen in liquid nitrogen and stored at −80° C.
Activation of Mnk1 and Mnk2a was at a concentration of 2.5 μM of either purified GST-Mnk1 or GST-Mnk2a by incubation with 150 nM pre-activated NHis-ERK2 (see ERK2 assay for preparation) and 50 μM adenosine triphosphate (ATP, Sigma, cat. no. A2699) in a buffer comprising 20 mM N-(2-hydroxyethyl)piperazine-N′-(2-ethanesulfonic acid) (HEPES, Fluka, Germany, cat. no 54459)/potassium hydroxide (KOH, Roth, Germany, cat. no 6751.1) pH 7.4, 10 mM magnesium chloride (MgCl2, Sigma, Germany, cat. no. M2670), 0.25 mM DTT, 0.05% (w/v) polyoxyethylene 20 stearylether (Brij 78, Sigma, Germany, cat. no. P4019) (HMDB buffer) for 45 min at 30° C. […]

T1 sequence (Q9HBH9 whole entry): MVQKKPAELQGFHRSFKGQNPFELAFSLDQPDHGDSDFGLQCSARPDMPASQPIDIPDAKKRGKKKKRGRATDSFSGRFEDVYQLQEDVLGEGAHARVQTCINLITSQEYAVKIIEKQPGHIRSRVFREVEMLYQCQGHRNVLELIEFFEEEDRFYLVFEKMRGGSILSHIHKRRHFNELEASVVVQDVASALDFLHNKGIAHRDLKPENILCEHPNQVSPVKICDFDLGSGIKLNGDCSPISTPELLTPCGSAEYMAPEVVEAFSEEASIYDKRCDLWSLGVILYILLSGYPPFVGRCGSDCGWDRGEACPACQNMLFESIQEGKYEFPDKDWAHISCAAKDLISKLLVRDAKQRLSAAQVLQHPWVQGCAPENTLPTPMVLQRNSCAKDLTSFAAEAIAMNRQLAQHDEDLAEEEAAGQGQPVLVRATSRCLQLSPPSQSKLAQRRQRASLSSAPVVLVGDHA

Structure (SMILES)	IC50
Cc1c(C(N)=O)sc2ncnc(Nc3cccnc3O[C@H]3CC[C@H](O)CC3)c12 [Example 204, 4-[2-(trans-4-Hydroxy-cyclohexyloxy)-pyridin-3-ylamino]-5-methyl-thieno[2,3-d]pyrimidine-6-carboxylic acid amide]	5 nM
Cc1c(C(=O)NCCCN2CCCC2)sc2ncnc(Nc3ccc(F)cc3O[C@H]3C[C@@H]4OCO[C@@H]4C3)c12 [Example 291, 4-[4-Fluoro-2-(tetrahydro-cyclopenta[1,3]dioxol-5-yloxy)phenylamino]-5-methyl-thieno[2,3-d]pyrimidine-6-carboxylic acid (3-pyrrolidin-1-yl-propyl)-amide]	19 nM
Cc1c(C(=O)NCc2cn(C)cn2)sc2ncnc(Nc3ccc(F)cc3O[C@@H]3CCC[C@@H](O)C3)c12 (racemic) [Example 76]	13 nM
Cc1c(C(N)=O)sc2ncnc(Nc3ccc(F)cc3O[C@@H]3CCC[C@H](O)C3)c12 (racemic) [Example 57, Racemic 4-[4-Fluoro-2-((cis)-3-hydroxy-cyclohexyloxy)-phenylamino]-5-methyl-thieno[2,3-d]pyrimidine-6-carboxylic acid amide]	7 nM
Cc1c(C(N)=O)sc2ncnc(Nc3ccc(F)cc3OC3CCC3)c12 [Example 243, 4-(2-Cyclobutoxy-4-fluoro-phenylamino)-5-methyl-thieno[2,3-d]pyrimidine-6-carboxylic acid amide]	9 nM
CO[C@@H]1CCC[C@@H](Oc2ncccc2Nc2ncnc3sc(C(N)=O)c(C)c23)C1 (racemic) [Example 131, Racemic 4-[2-((trans)-3-Methoxy-cyclohexyloxy)-pyridin-3-ylamino]-5-methyl-thieno[2,3-d]pyrimidine-6-carboxylic acid amide]	18 nM
Cc1c(C(=O)NC2CCN(C)CC2)sc2ncnc(Nc3ccc(F)cc3O[C@H]3C[C@@H]4OCO[C@@H]4C3)c12 [Example 292]	46 nM
CO[C@H]1CCC[C@@H](Oc2cc(F)ccc2Nc2ncnc3sc(C(=O)N[C@H]4CC[C@H](O)CC4)c(C)c23)C1 (racemic) [Example 100]	34 nM
COC1CCCC(Oc2cc(F)ccc2Nc2ncnc3sc(C(=O)NCC#N)c(C)c23)C1 (stereo not shown) [Example 94]	21 nM
COCCN[C@H]1CC[C@@H](Oc2cc(F)ccc2Nc2ncnc3sc(C(N)=O)c(C)c23)CC1 [Example 25, 4-(4-Fluoro-2-(cis-4-(2-methoxyethylamino)cyclohexyloxy)phenylamino)-5-methylthieno[2,3-d]pyrimidine-6-carboxamide]	300 nM
Cc1c(C(N)=O)sc2ncnc(Nc3ccc(F)cc3O[C@@H]3CC[C@@H](O)[C@H]3O)c12 (relative stereo) [Example 221]	10 nM
Cc1c(C(=O)NCCCN2CCCC2=O)sc2ncnc(Nc3ccc(F)cc3O[C@H]3CC[C@H](O)CC3)c12 [Example 271, 4-[4-Fluoro-2-(trans-4-hydroxy-cyclohexyloxy)-phenylamino]-5-methyl-thieno[2,3-d]pyrimidine-6-carboxylic acid [3-(2-oxo-pyrrolidin-1-yl)-propyl]amide]	12 nM
COC1CCCC(Oc2ncccc2Nc2ncnc3sc(C(=O)NC4CC4N)c(C)c23)C1 (mixture of isomers) [Example 111]	36 nM
CO[C@H]1CCC[C@@H](Oc2ncccc2Nc2ncnc3sc(C(=O)NCc4cnco4)c(C)c23)C1 (racemic) [Example 114]	19 nM
CC(=O)N[C@H]1C[C@H](Oc2cc(F)ccc2Nc2ncnc3sc(C(=O)NCC#CCN(C)C)c(C)c23)C1 [Example 245, 4-[2-(trans-3-Acetylamino-cyclobutoxy)-4-fluoro-phenylamino]-5-methyl-thieno[2,3-d]pyrimidine-6-carboxylic acid (4-dimethylamino-but-2-ynyl)-amide]	39 nM
Cc1c(C(=O)N[C@H]2C[C@@H]2N)sc2ncnc(Nc3ccc(F)cc3O[C@H]3CC[C@H](O)CC3)c12 [Example 159]	16 nM
CO[C@H]1CC[C@H](Oc2cc(F)ccc2Nc2ncnc3sc(C(=O)NCC4COCCN4)c(C)c23)CC1 (stereo partly shown) [Example 179]	30 nM

Structure (SMILES)	IC50
Cc1c(C(=O)NCCCN2CCCC2)sc2ncnc(Nc3cccnc3O[C@H]3CC[C@H](O)CC3)c12 [Example 268]	14 nM
CO[C@H]1CCC[C@@H](Oc2ncccc2Nc2ncnc3sc(C(=O)NCC(C)O)c(C)c23)C1 (relative stereo) [Example 125]	44 nM
Cc1c(C(=O)NCCCN(C)C)sc2ncnc(Nc3ccc(F)cc3O[C@@H]3CC[C@@H](O)[C@H]3O)c12 (relative stereo) [Example 222]	41 nM
Cc1c(C(=O)N[C@H]2CC[C@H](O)CC2)sc2ncnc(Nc3ccc(F)cc3O[C@H]3CC[C@H](O)CC3)c12 [Example 168]	20 nM
CCN(CC)CCCNC(=O)c1sc2ncnc(Nc3ccc(F)cc3O[C@H]3CC[C@H](OC)CC3)c2c1C [Example 276]	12 nM
COCCNC(=O)c1sc2ncnc(Nc3ccc(F)cc3O[C@H]3CC[C@@H](OC)CC3)c2c1C [Example 203]	62 nM
CO[C@H]1CC[C@H](Oc2cc(F)ccc2Nc2ncnc3sc(C(=O)NCC4CNCCO4)c(C)c23)CC1 (stereo partly shown) [Example 180]	16 nM
COC1CCCC(Oc2cc(F)ccc2Nc2ncnc3sc(C(=O)NCC4CNCCO4)c(C)c23)C1 (mixture of isomers) [Example 83]	53 nM
CO[C@@H]1CCC[C@@H](Oc2cc(F)ccc2Nc2ncnc3sc(C(=O)NCCCN(C)C)c(C)c23)C1 (racemic) [Example 88]	61 nM
COC(=O)c1sc2ncnc(Nc3ccc(F)cc3O[C@@H]3C[C@H](O)C[C@H](O)C3)c2c1C [Example 28.1]	158 nM
Cc1c(C(N)=O)sc2ncnc(Nc3ccc(F)cc3O[C@H]3CC[C@H](O)CC3)c12 [Example 158, 4-[4-Fluoro-2-(trans-4-hydroxy-cyclohexyloxy)-phenylamino]-5-methyl-thieno[2,3-d]pyrimidine-6-carboxylic acid amide]	4 nM
COC1CCCC(Oc2cc(F)ccc2Nc2ncnc3sc(C(=O)NCCCCO)c(C)c23)C1 (stereo not shown) [Example 81]	98 nM
Cc1c(C(N)=O)sc2ncnc(Nc3ccc(F)cc3O[C@H]3CC[C@@H](N(C)S(C)(=O)=O)CC3)c12 [Example 9, 4-(4-Fluoro-2-(cis-4-(N-methylmethylsulfonamido)cyclohexyloxy)phenylamino)-5-methylthieno[2,3-d]pyrimidine-6-carboxamide]	5900 nM
CC(=O)N[C@H]1CC[C@H](Oc2cc(F)ccc2Nc2ncnc3sc(C(=O)N[C@@H]4C[C@H]4NC(=O)OC(C)(C)C)c(C)c23)C1 [Example 232]	6 nM
CC(=O)N[C@H]1CC[C@H](Oc2cc(F)ccc2Nc2ncnc3sc(C(=O)NCC#CCN(C)C)c(C)c23)C1 [Example 233]	19 nM
COC1CCCC(Oc2cc(F)ccc2Nc2ncnc3sc(C(=O)NCC4COCCN4)c(C)c23)C1 (stereo not shown) [Example 99]	36 nM
CC(=O)N[C@H]1CC[C@H](Oc2cc(F)ccc2Nc2ncnc3sc(C(=O)NCCO)c(C)c23)C1 [Example 231, 4-[2-((1S,3S)-3-Acetylamino-cyclopentyloxy)-4-fluoro-phenylamino]-5-methyl-thieno[2,3-d]pyrimidine-6-carboxylic acid (2-hydroxy-ethyl)-amide]	14 nM
